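A five-concentration, 48-hour dose response in 96-well plates underlies each endpoint, interpolated linearly between surrounding concentrations. TGI marks complete inhibition of growth.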
Tests used:
Assay in all cases: NCI tumour cell line growth inhibition, 48 h
COLO 205 colon = system: COLO 205 colon
MDA-N = system: MDA-N
NCI-H460 lung = system: NCI-H460 lung
SF-295 CNS = system: SF-295 CNS
SN12C renal = system: SN12C renal
MDA-MB-435 = system: MDA-MB-435
OVCAR-5 ovarian = system: OVCAR-5 ovarian
SNB-19 CNS = system: SNB-19 CNS
SNB-75 CNS = system: SNB-75 CNS
M14 melanoma = system: M14 melanoma
SK-OV-3 ovarian = system: SK-OV-3 ovarian
CAKI-1 renal = system: CAKI-1 renal
CCRF-CEM leukemia = system: CCRF-CEM leukemia
DU-145 prostate = system: DU-145 prostate
TK-10 renal = system: TK-10 renal
HT29 colon = system: HT29 colon
HS 578T breast = system: HS 578T breast
MALME-3M melanoma = system: MALME-3M melanoma
NCI-H522 lung = system: NCI-H522 lung

| SMILES | TGI (COLO 205 colon) [µM] | TGI (MDA-N) [µM] | TGI (NCI-H460 lung) [µM] | TGI (SF-295 CNS) [µM] | TGI (SN12C renal) [µM] | TGI (MDA-MB-435) [µM] | TGI (OVCAR-5 ovarian) [µM] | TGI (SNB-19 CNS) [µM] | TGI (SNB-75 CNS) [µM] | TGI (M14 melanoma) [µM] | TGI (SK-OV-3 ovarian) [µM] | TGI (CAKI-1 renal) [µM] | TGI (CCRF-CEM leukemia) [µM] | TGI (DU-145 prostate) [µM] | TGI (TK-10 renal) [µM] | TGI (HT29 colon) [µM] | TGI (HS 578T breast) [µM] | TGI (MALME-3M melanoma) [µM] | TGI (NCI-H522 lung) [µM] |
| --- | --- | --- | --- | --- | --- | --- | --- | --- | --- | --- | --- | --- | --- | --- | --- | --- | --- | --- | --- |
| CCCn1c(=O)c2nn3c(=O)n(CCC)c(=O)c3nn2c1=O | > 100 | > 100 | > 100 | > 100 | > 100 | > 100 | > 100 | > 100 | > 100 | > 100 | > 100 | > 100 | > 100 | > 100 | > 100 | > 100 | > 100 | > 100 | > 100 |
| Cc1cnc2c(c1)C(=O)N(c1ccc([N+](=O)[O-])cc1)S2(=O)=O | > 100 | > 100 | > 100 | > 100 | > 100 | > 100 | > 100 | > 100 | > 100 | > 100 | > 100 | > 100 | > 100 | > 100 | > 100 | > 100 | > 100 | 63.4 | > 100 |
| CN1CC=C(c2cccn2C)CC1 | > 100 | > 100 | – | > 100 | > 100 | > 100 | > 100 | > 100 | > 100 | > 100 | > 100 | > 100 | > 100 | > 100 | > 100 | > 100 | > 100 | > 100 | > 100 |
| COc1ccc(-n2c(Cn3nnc(-c4cccnc4)n3)nn(C3OC(COC(=O)c4ccccc4)C(OC(=O)c4ccccc4)C3OC(=O)c3ccccc3)c2=S)cc1 (centres undefined) | > 100 | > 100 | > 100 | > 100 | > 100 | > 100 | > 100 | > 100 | > 100 | > 100 | > 100 | > 100 | > 100 | > 100 | > 100 | > 100 | > 100 | > 100 | > 100 |
| C=C1CC(C)(COc2cc(=O)oc3ccccc23)OC1=O (centres undefined) | 5.81 | 16.3 | 27.5 | 30.6 | 21.4 | 17.7 | 22.3 | 35.5 | 21.3 | 2.95 | 22.5 | 6.32 | 5.08 | 19 | 5.16 | 13.3 | 30.8 | 6.6 | 5.2 |
| O=c1nc2c(c(-c3ccc(F)cc3)[nH]1)COC/C2=C\c1ccc(F)cc1 | > 100 | > 100 | > 100 | > 100 | > 100 | > 100 | > 100 | > 100 | > 100 | > 100 | > 100 | > 100 | > 100 | > 100 | > 100 | – | > 100 | – | > 100 |
| COC(=O)[C@H](COC(C)(C)C)NC(=O)N[C@H](C)c1ccccc1 | > 100 | > 100 | > 100 | > 100 | > 100 | > 100 | > 100 | > 100 | > 100 | > 100 | > 100 | > 100 | > 100 | > 100 | > 100 | > 100 | > 100 | – | > 100 |
| Cc1ccc(SCC(CF)OC(C)n2cnc3c(Cl)nc(N)nc32)cc1 (centres undefined) | > 100 | > 100 | > 100 | > 100 | > 100 | > 100 | > 100 | > 100 | > 100 | > 100 | > 100 | > 100 | > 100 | > 100 | > 100 | > 100 | > 100 | > 100 | 36.1 |
| CCc1ccc(Nc2cc(=O)n(C)c(SCc3ccccc3)n2)cc1 | 45.2 | > 100 | – | > 100 | 42.8 | > 100 | > 100 | > 100 | > 100 | > 100 | > 100 | > 100 | > 100 | > 100 | > 100 | 60.4 | > 100 | > 100 | > 100 |
| C/C(=C\CNc1ncnc2c1ncn2CCC(=O)OC(C)(C)C)CO | > 100 | > 100 | > 100 | > 100 | > 100 | > 100 | > 100 | > 100 | > 100 | > 100 | > 100 | > 100 | > 100 | > 100 | > 100 | > 100 | > 100 | > 100 | > 100 |
| COC(=O)c1ccc(C)cc1C1CN=NC12Cc1cc(C)ccc1C2=O (centres undefined) | 19.1 | 6.11 | > 65.4 | > 77.2 | > 87.1 | 6.12 | > 100 | > 100 | > 68.1 | 36.9 | > 100 | 97.3 | > 100 | 97.6 | 71.7 | 15.2 | 41.3 | > 100 | 26.8 |
| c1ccc2nn(C3CCCO3)nc2c1 (centres undefined) | > 100 | > 100 | > 100 | > 100 | > 100 | > 100 | > 100 | – | > 100 | > 100 | > 100 | > 100 | > 100 | > 100 | > 100 | > 100 | > 100 | > 100 | > 100 |
| O=C1CCSc2nc(-c3ccc4c(c3)OCO4)nn21 | > 10 | > 10 | > 10 | > 10 | > 10 | > 10 | > 10 | > 10 | > 10 | > 10 | > 10 | > 10 | > 10 | > 10 | > 10 | > 10 | > 10 | > 10 | > 10 |
| O=C(O)c1cccc(OCCOc2cccc(C(=O)O)c2[N+](=O)[O-])c1[N+](=O)[O-] | > 100 | > 100 | > 100 | > 100 | > 100 | > 100 | > 100 | > 100 | > 100 | > 100 | > 100 | > 100 | > 100 | > 100 | > 100 | > 100 | > 100 | > 100 | > 100 |
| CCOC(=O)c1cn(CC)c2ccc3ccsc3c2c1=O | > 100 | > 100 | > 100 | > 100 | – | > 100 | > 100 | > 100 | > 100 | > 100 | > 100 | > 100 | > 100 | > 100 | > 100 | > 100 | > 100 | > 100 | > 100 |
| OCC1OC(n2cnc3c(SCc4ccccc4)ncnc32)C(O)C1O (centres undefined) | > 94.9 | > 100 | > 100 | > 100 | > 100 | > 100 | > 100 | > 100 | > 100 | > 100 | > 100 | > 100 | 3.55 | > 100 | > 100 | > 100 | > 61.4 | > 100 | > 100 |
| COc1cc2cc3c4cc(OC)c(OC)cc4cc[n+]3c(C)c2cc1OC | > 100 | > 100 | > 100 | > 100 | > 100 | > 100 | > 100 | > 100 | 45.7 | – | > 100 | > 100 | > 100 | > 100 | > 100 | > 100 | > 100 | > 100 | > 100 |
| CC(=O)N=c1ccc2nc(N)nn(O)c-2c1 | > 100 | > 100 | > 100 | > 100 | > 100 | > 100 | > 100 | > 100 | > 100 | > 100 | > 100 | > 100 | > 100 | > 100 | > 100 | > 100 | > 100 | – | > 100 |
| CC(C)CC(NC=O)C(=O)NC(Cc1ccccc1)NC(=O)CNC(=O)C(C)NC(=O)C(N)Cc1ccc(O)cc1 (centres undefined) | > 100 | > 100 | > 100 | > 100 | > 100 | > 100 | > 100 | > 100 | > 100 | > 100 | > 100 | > 100 | – | > 100 | > 100 | > 100 | > 100 | – | > 100 |
| CCOC(=O)C1=CNC(C(=O)OCC)C1c1cccn1-c1ccccc1 (centres undefined) | 68.2 | 57.4 | > 100 | 74.5 | > 100 | 57.6 | > 100 | – | 65.4 | > 100 | – | > 100 | 77 | > 100 | > 100 | 50.5 | > 100 | – | 59.1 |
| CC(=O)O[C@H]1CC[C@@]2(C)C(=CC[C@@H]3[C@@H]2CC[C@](C)(c2nnc(C)o2)[C@H]3CC#N)C1 | > 100 | > 100 | – | > 100 | > 100 | > 100 | > 100 | > 100 | > 100 | > 100 | > 100 | > 100 | > 100 | > 100 | > 100 | > 100 | > 100 | > 100 | > 100 |
| C(=N\NC1=NCCN1)/c1cccc2cc3ccncc3nc12 | 15.5 | 11 | 20.5 | 14.5 | 14.9 | 10.5 | – | 21.4 | 5.04 | 28.3 | 23.5 | 14.1 | 3.8 | 19.9 | 22.2 | 10.5 | 61.3 | 23.4 | 11.9 |
| CC(CNC(=O)c1ccccc1)(CNC(=O)c1ccccc1)[N+](=O)[O-] | > 100 | > 100 | > 100 | > 100 | > 100 | > 100 | > 100 | 73.3 | > 100 | > 100 | > 100 | > 100 | – | > 100 | > 100 | > 100 | > 100 | > 100 | > 100 |
| Cn1nc(-c2ccccc2)c2c(-c3ccccc3)c3cc(Cl)ccc3nc21 | – | > 100 | > 100 | > 100 | > 100 | > 100 | > 100 | > 100 | > 100 | > 100 | > 100 | > 100 | > 100 | > 100 | > 100 | > 100 | > 100 | > 100 | > 100 |
| c1ccc(-c2cc(-c3ccncc3)cc(-c3ccncc3)n2)cc1 | > 100 | > 100 | – | > 100 | > 100 | > 100 | > 100 | > 100 | 99.1 | > 100 | > 100 | > 100 | > 100 | > 100 | > 100 | > 100 | > 100 | > 100 | > 100 |
| O=c1oc2ccc3ccccc3c2cc1-c1cn2c(n1)sc1ccccc12 | > 100 | > 100 | > 100 | > 100 | – | > 100 | > 100 | > 100 | > 100 | > 100 | > 100 | > 100 | > 100 | > 100 | > 100 | > 100 | > 100 | > 100 | > 100 |
